Experimental data taken from the supplement of paper PMC10307832.

Legend:
Experiment in all cases: relative viability (nuclei count vs DMSO), 5 days (fraction); higher = more cells survive
FH535 + Pemetrexed = compound: CC1=C(C=CC(=C1)[N+](=O)[O-])NS(=O)(=O)C2=C(C=CC(=C2)Cl)Cl [FH535] + Nc1nc2[nH]cc(CCc3ccc(C(=O)N[C@@H](CCC(=O)O)C(=O)O)cc3)c2c(=O)[nH]1 [Pemetrexed] (partner 0.2 µM)
Outline: (§1)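 A single step with final 0.05% Triton X-100, 1% formaldehyde and 1 ug/ml Hoechst fixed the cells and stained nuclei 5 days after treatment. Lung cancer cell lines in 1536-well plates had been treated by pin tool the day after seeding with one drug alone or a fixed anchor-drug dose plus five library-drug doses (not always all listed) in √10 steps, and nuclei were counted on 4× images. Relative viability is the ratio of nuclei in treated wells to nuclei in vehicle wells, taken as the median of duplicate plates.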

FH535 + Decitabine = compound: CC1=C(C=CC(=C1)[N+](=O)[O-])NS(=O)(=O)C2=C(C=CC(=C2)Cl)Cl [FH535] + Nc1ncn([C@H]2C[C@H](O)[C@@H](CO)O2)c(=O)n1 [Decitabine] (partner 2 µM)
Outline: as §1

FH535 + Olaparib = compound: CC1=C(C=CC(=C1)[N+](=O)[O-])NS(=O)(=O)C2=C(C=CC(=C2)Cl)Cl [FH535] + O=C(c1cc(Cc2n[nH]c(=O)c3ccccc23)ccc1F)N1CCN(C(=O)C2CC2)CC1 [Olaparib] (partner 8 µM)
Outline: as §1

FH535 + Vorinostat = compound: CC1=C(C=CC(=C1)[N+](=O)[O-])NS(=O)(=O)C2=C(C=CC(=C2)Cl)Cl [FH535] + O=C(CCCCCCC(=O)Nc1ccccc1)NO [Vorinostat] (partner 1 µM)
Outline: as §1

FH535 + Alpelisib = compound: CC1=C(C=CC(=C1)[N+](=O)[O-])NS(=O)(=O)C2=C(C=CC(=C2)Cl)Cl [FH535] + Cc1nc(NC(=O)N2CCC[C@H]2C(N)=O)sc1-c1ccnc(C(C)(C)C(F)(F)F)c1 [Alpelisib] (partner 2 µM)
Outline: as §1

| Cell Line | relative viability (FH535 + Pemetrexed; first compound 0.04 µM) | relative viability (FH535 + Pemetrexed; first compound 0.1265 µM) | relative viability (FH535 + Pemetrexed; first compound 0.4 µM) | relative viability (FH535 + Pemetrexed; first compound 1.265 µM) | relative viability (FH535 + Decitabine; first compound 0.04 µM) | relative viability (FH535 + Decitabine; first compound 0.1265 µM) | relative viability (FH535 + Decitabine; first compound 0.4 µM) | relative viability (FH535 + Decitabine; first compound 1.265 µM) | relative viability (FH535 + Olaparib; first compound 0.04 µM) | relative viability (FH535 + Olaparib; first compound 0.1265 µM) | relative viability (FH535 + Olaparib; first compound 0.4 µM) | relative viability (FH535 + Olaparib; first compound 1.265 µM) | relative viability (FH535 + Vorinostat; first compound 0.04 µM) | relative viability (FH535 + Vorinostat; first compound 0.1265 µM) | relative viability (FH535 + Vorinostat; first compound 0.4 µM) | relative viability (FH535 + Vorinostat; first compound 1.265 µM) | relative viability (FH535 + Alpelisib; first compound 0.04 µM) | relative viability (FH535 + Alpelisib; first compound 0.1265 µM) | relative viability (FH535 + Alpelisib; first compound 0.4 µM) | relative viability (FH535 + Alpelisib; first compound 1.265 µM) |
| --- | --- | --- | --- | --- | --- | --- | --- | --- | --- | --- | --- | --- | --- | --- | --- | --- | --- | --- | --- | --- |
| NCI-H1651 | 0.568 | 0.595 | 0.551 | 0.553 | 0.562 | 0.602 | 0.622 | 0.447 | 0.174 | 0.194 | 0.188 | 0.184 | 0.473 | 0.531 | 0.606 | 0.52 | 1 | 1.07 | 1.04 | 0.69 |
| 201T | 0.344 | 0.336 | 0.356 | 0.275 | 0.824 | 0.842 | 0.872 | 0.652 | 0.812 | 0.856 | 0.827 | 0.59 | 0.905 | 0.948 | 0.855 | 0.929 | 1.02 | 1.01 | 1.02 | 1 |
| NCI-H322M | 0.559 | 0.67 | 0.633 | 0.587 | 0.677 | 0.711 | 0.694 | 0.682 | 0.739 | 0.664 | 0.778 | 0.741 | 0.898 | 0.878 | 0.83 | 0.744 | 0.722 | 0.783 | 0.83 | 0.761 |
| A549 | – | – | – | – | 0.251 | 0.228 | 0.161 | 0.222 | 0.28 | 0.306 | 0.284 | 0.299 | – | – | – | – | 0.842 | 0.754 | 0.72 | 0.705 |
| NCI-H838 | 0.249 | 0.233 | 0.216 | 0.204 | 0.39 | 0.498 | 0.387 | 0.345 | 0.727 | 0.768 | 0.66 | 0.475 | 0.704 | 0.754 | 0.659 | 0.591 | 0.917 | 1.06 | 0.962 | 0.765 |
| NCI-H460 | 0.0603 | 0.0608 | 0.0625 | 0.0646 | 0.442 | 0.608 | 0.493 | 0.347 | 0.402 | 0.386 | 0.379 | 0.32 | 0.72 | 0.743 | 0.674 | 0.447 | 0.388 | 0.601 | 0.51 | 0.449 |
| HOP-62 | 0.322 | 0.267 | 0.345 | 0.35 | 0.232 | 0.196 | 0.23 | 0.227 | 0.278 | 0.36 | 0.4 | 0.453 | 0.5 | 0.681 | 0.557 | 0.563 | 0.931 | 0.948 | 0.778 | 0.694 |
| SK-LU-1 | 1.01 | 1.01 | 1.04 | 0.865 | 0.63 | 0.517 | 0.626 | 0.44 | 0.48 | 0.439 | 0.456 | 0.407 | 0.731 | 0.814 | 0.736 | 0.456 | 0.913 | 1.1 | 0.949 | 0.616 |
